The nature of experiment [1]: Neuroprotective activity in Homo sapiens (human) SH-SY5Y cells assessed as reduction of amyloid beta-induced cell death at 10 ug/ml inubated for 1 hr prior to amyloid beta induction measured after 48 hr by MTT assay. It is filed as functional. More on the design: scale not given: the % may be the effect or the level left. (Formazan colour is commonly taken as a measure of viable cells.)

Experiment [2] concerns the target T1, Beta-secretase 1 (Homo sapiens, UniProt P56817). Description: Inhibition of BACE1 (unknown origin) at 10 ug/ml after 1 hr by FRET assay.
The target of experiment [3] is T1, Beta-secretase 1. Description: Inhibition of BACE1 (unknown origin).
For experiment [4], the target named is T1, Beta-secretase 1. The experiment in a line: Inhibition of Homo sapiens (human) Beta-secretase 1.

*1 amine or outer side, *2 acyl side, *3 side chain or, on linkers, in order; H or OH if unused. Where a SMILES comes first, the peptide text is derived from it. [ ]: non-standard residue; d: D form. LeuΨ(S-CHOHCH2)Ala = CC(C)C[C@H](N[*:1])[C@@H](O)C[C@@H](C)C(=O)[*:2]

T1 sequence (P56817 whole entry): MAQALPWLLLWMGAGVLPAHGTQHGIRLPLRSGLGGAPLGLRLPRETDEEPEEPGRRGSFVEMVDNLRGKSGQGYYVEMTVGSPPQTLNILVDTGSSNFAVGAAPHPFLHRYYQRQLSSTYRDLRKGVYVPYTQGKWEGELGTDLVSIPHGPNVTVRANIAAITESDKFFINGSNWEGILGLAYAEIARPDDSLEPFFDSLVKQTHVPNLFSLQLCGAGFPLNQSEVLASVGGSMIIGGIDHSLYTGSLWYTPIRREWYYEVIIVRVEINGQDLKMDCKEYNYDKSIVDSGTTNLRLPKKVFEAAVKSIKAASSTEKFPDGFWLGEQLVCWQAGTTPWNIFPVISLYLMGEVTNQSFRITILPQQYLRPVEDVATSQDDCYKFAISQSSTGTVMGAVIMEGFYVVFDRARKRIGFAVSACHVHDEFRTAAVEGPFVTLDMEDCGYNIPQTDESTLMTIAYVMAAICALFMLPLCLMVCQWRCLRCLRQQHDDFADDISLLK

The term inhibition denotes how much of the control response was suppressed. Regarding `CCOC(=O)CCC(=O)NC1=NC2CCCCC2S1` (stereo not given), the Activity in experiment [1] came out at 26.1%. In experiment [2], the inhibition was 26.7%.
Consider `O=C(/C=C/c1ccccc1)Nc1nc(-c2ccccc2)cs1`, for which the inhibition in experiment [2] was determined as 23.6%.
For the compound `O=C(Nc1nc(-c2ccccc2)cs1)c1ccncc1`, the Activity in experiment [1] worked out at 8.2%. For the same compound, the inhibition in experiment [2] came out at 29.1%.
As for `COc1cc(/C=C/C(=O)Nc2nc(-c3ccccc3)cs2)cc(OC)c1`, the inhibition in experiment [2] is 24.5%.
As usually defined, the Ki is the equilibrium dissociation constant of an inhibitor or competing ligand from its target. For orientation: IC50 means the concentration at which inhibition is half-maximal. Regarding `CC(C)C[C@H](NC(=O)[C@H](CC(N)=O)NC(=O)[C@@H](NC(=O)[C@@H](N)CC(=O)O)C(C)C)[C@@H](O)C[C@@H](C)C(=O)N[C@@H](C)C(=O)N[C@@H](CC(=O)O)C(=O)N[C@@H](Cc1ccccc1)C(=O)O` (H-DVN[LeuΨ(S-CHOHCH2)Ala]ADF-OH), the inhibitory constant (Ki) in experiment [3] was 1.6 nM. The same compound had an IC50 in experiment [4] of 2 nM.
As to `CCOC(=O)CCC(=O)Nc1nc(-c2ccccc2)cs1`, the Activity in experiment [1] turned out to be 45.5%. The compound also yielded an inhibition in experiment [2] of 31.8%.
